Patent US20080020385A1, “Use Of A Genetic Modification In The Human Gnaq Gene For Predicting Risk Of Disease, The Course Of Disease, And Reaction To Treatments” (priority 2004, published 2008)

Assays:
[1] = system: skin blood circulation; assay: Change of skin blood circulation after injection of vasoconstrictors under the skin; assay type: in vivo; details: injected under the skin of human individuals, by GC(-909/-908)TT genotype
Method: As an example for the general usability of the GNAQ GC(−909/−908)TT polymorphism to predict drug actions, the vasoconstrictors angiotensin II, noradrenaline or endothelin were injected under the skin of human individuals, and the following change of blood circulation was recorded (FIG. 18).

[2] = system: GNAQ promoter; assay: SEAP reporter assay of GNAQ promoter construct -798/+89 (GC or TT genotype) in stimulated HEK cells; assay type: cell-based, human; details: construct -798/+89, stimulation with 10 nM angiotensin II, p<0.05
From the text: For functional detection of a modified promoter activity in relation to specific genotypes, various fragments of the promoter with the GC or the TT genotype were cloned into the pSEAP vector to quantify the promoter activity after expression of the vector in HEK cells in a so-called reporter assay (FIG. 5). For this assay, constructs are cloned before a gene encoding the secreted alkaline phosphatase (SEAP). If the construct has promoter activity, the SEAP gene will be transcribed more, and the increased secretion of alkaline phosphatase into the cell culture medium can be measured. […] Since the polymorphism is located in this region (−697/−695 relative from the transcription starting point) showing the highest reporter activity, and furthermore a transcription factor binding site is influenced by the nucleic acid exchange, it is now studied if stimulation of HEK cells has an effect on the reporter activity of these constructs. For this, construct −798/+89 was transfected into HEK cells, together with either the GC(−909/−908) or the TT(−909/−908) polymorphism, and the cells were stimulated with serum or angiotensin II (FIG. 6). […] In order to verify if this regulation also occurs in vivo, Gαq expression was analyzed on mRNA level by real time-PCR.

[3] = system: human adipocytes; assay: Inhibition of isoprenaline-induced lipolysis (glycerol release) in human adipocyte cultures; assay type: cell-based; details: human adipocytes ex vivo, by GC(-909/-908)TT genotype
From the text: The inhibiting effect of insulin on lipolysis was studied in human adipocyte cultures. For this, lipolysis was induced ex vivo in human adipocytes by isoprenaline, and the inhibiting effect of insulin was studied by adding insulin to the cultures. Lipolysis was quantified by glycerol release (Hauner et al., 2002). […] This coincides with the observation of an increased gene expression of Gq in this genotype.

Compound | reduction of skin blood circulation [1] | promoter activity (secreted alkaline phosphatase), GC genotype compared to TT genotype [2] | inhibiting effect on isoprenaline-induced lipolysis (glycerol release) [3]
CC[C@H](C)[C@H](NC(=O)[C@H](CC(=O)O)NC(=O)[C@H](CC(C)C)NC(=O)[C@H](Cc1c[nH]cn1)NC(=O)[C@@H]1CSSC[C@H](N)C(=O)N[C@@H](CO)C(=O)N[C@H]2CSSC[C@H](NC(=O)[C@H](CCC(=O)O)NC(=O)[C@H](CCCCN)NC(=O)[C@H](CC(=O)O)NC(=O)[C@H](CCSC)NC(=O)[C@H](CC(C)C)NC(=O)[C@H](CO)NC(=O)[C@H](CO)NC2=O)C(=O)N[C@@H](C(C)C)C(=O)N[C@@H](Cc2ccc(O)cc2)C(=O)N[C@@H](Cc2ccccc2)C(=O)N1)C(=O)N[C@H](C(=O)N[C@@H](Cc1c[nH]c2ccccc12)C(=O)O)[C@@H](C)CC [endothelin] | reduction of skin blood circulation is highest for the GC/GC genotype |  | 
NC[C@H](O)c1ccc(O)c(O)c1 [noradrenaline] | reduction of skin blood circulation is highest for the GC/GC genotype |  | 
angiotensin II (DRVYIHPF; Angiotensin-2; UniProt P01019 25-32, looked up) [hormone, vasoconstrictor] | reduction of skin blood circulation is highest for the GC/GC genotype | two to four times increased promoter activity compared to the TT genotype | 
insulin |  |  | inhibiting insulin effect was strongest with adipocytes from individuals with GCGC genotype
